Experimental findings from patent US12728122B2, “Treatment of urothelial and kidney cancers by use of endothelin B receptor antagonists” (ENB Therapeutics, Inc., priority 2019, dated 2026) are described below.

Assay [1] has as its target T1, human Endothelin receptor type A (ETA) (Homo sapiens, UniProt P25101).
T1 sequence (P25101 21-427): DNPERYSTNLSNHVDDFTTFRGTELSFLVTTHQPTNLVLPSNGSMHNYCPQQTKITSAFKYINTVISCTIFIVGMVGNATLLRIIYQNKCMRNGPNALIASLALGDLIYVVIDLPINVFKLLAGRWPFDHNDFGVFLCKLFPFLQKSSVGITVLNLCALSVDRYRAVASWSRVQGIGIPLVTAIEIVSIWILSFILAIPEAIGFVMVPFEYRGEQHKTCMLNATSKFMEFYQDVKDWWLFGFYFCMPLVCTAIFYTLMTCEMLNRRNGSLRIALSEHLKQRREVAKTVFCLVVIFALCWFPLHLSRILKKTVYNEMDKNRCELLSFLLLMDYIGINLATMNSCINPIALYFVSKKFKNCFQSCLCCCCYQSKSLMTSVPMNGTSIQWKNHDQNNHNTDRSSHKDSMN
Kind of assay: ETA (h) cellular antagonist effect. Format: cell-based. The protocol: FIGS. 5A and 5B illustrate human (“h”) Endothelin receptor type A (“ETA”) inhibitory effect for A) BQ-788 and B) BQ-788-B (Compound 1), a specifically deuterated ETBR antagonist. Cellular agonist effect was calculated as a % of control response to a known reference agonist for ETA (h), and cellular antagonist effect was calculated as a % inhibition of control reference agonist response for ETA.
Determination of ETA (h) inhibitory effect for BQ-788 and BQ-788-B (COMPOUND 1). […] Cellular agonist effect was calculated as a % of control response to a known reference agonist for ETA (h), and cellular antagonist effect was calculated as a % inhibition of control reference agonist response for ETA.

In another assay the test system is plasma ET-1. Kind of assay: Plasma ET-1 ELISA after IV infusion, indirect measure of ETBR engagement. In kind it is in vivo. The following applies: rats, 250 μg/kg IV infusion. The protocol:
Plasma concentrations of BQ-788 versus BQ-788-B (COMPOUND 1). […] Briefly, rats (N=4 animals per timepoint) were administered either BQ-788 or the deuterated form, BQ-788-B (COMPOUND 1) at a dose of 250 μg/kg via IV infusion. Plasma samples were collected at various time points and ET-1 ELISA performed. BQ788 and BQ788-B are peptide drugs that are rapidly degraded in plasma and thus drug levels are difficult to detect directly. […] As such, plasma levels of ET-1 are commonly used as an indirect measure of BQ-788 biologic activity.

Assay [2] concerns bladder cancer tumor cells, MB49-PDIRA-220. Kind of assay: Syngeneic bladder cancer murine model, tumor volume. Format: in vivo, C57BL/6 mice. As to conditions: for anti-bladder cancer treatment efficacy (tumor volume): vs control and single agents. The procedure:
6 week old female C57BL/6 mice, n=5 per group, were implanted with bladder cancer tumor cells, MB49-PDIRA-220 at the right flank. When tumors reached from about 50 mm^3-75 mm^3 in volume, mice were separated into 4 treatment groups: (1) dosed with 4 μg of BQ-788-B (Compound 1) intravenously on days 1, 3, 5, 8, 10, 12 and 15 and with 100 μg of an anti-PD-1 agent intraperitoneally on days 1, 4, 9 and 13; (2) dosed with 4 μg of BQ-788-B (Compound 1) intravenously on days 1, 3, 5, 8, 10, 12 and 15; (3) dosed with 100 μg of an anti-PD-1 agent intraperitoneally on days 1, 4, 9 and 13; or (4) untreated control. Tumor volume measurements were taken every two days post treatment.
6 week old female C57BL/6 mice, n=5 per group, were implanted with bladder cancer tumor cells, MB49-PD1RA-220 at the right flank. When tumors reached from about 100 mm^3 in volume, mice were separated into 4 treatment groups: (1) dosed with BQ-788-B (Compound 1) intravenously on days 1, 3, 5, and 8 with 100 μg of an immunotherapeutic agent, namely an anti-PD-1 antibody intraperitoneally on days 1, 4, 9 and 13 (2) dosed with 4 μg of BQ-788-B (Compound 1) intravenously on days 1, 3, 5, and 8 (3) dosed with 100 μg of an anti-PD-1 agent intraperitoneally on days 1, 4, 9 and 13 or (4) untreated control. Tumor volume measurements were taken 3 times per week. The study was terminated on day 8 due to morbidity of control groups.
6 week old female C57BL/6 mice, n=5 per group, were implanted with bladder cancer tumor cells, MB49-PDIRA-220 at the right flank. When tumors reached from about 25 mm^3-50 mm^3 volume, mice were separated into 4 treatment groups: (1) dosed with 4 μg of BQ-788-B (BQ788) intravenously on days 1, 3, 5, and 8 with 100 μg of an anti-PD-1 agent intraperitoneally on days 1, 4, and 9 (2) dosed with 4 μg of BQ-788-B (BQ788) intravenously on days 1, 3, 5, and 8 (3) dosed with 100 μg of an anti-PD-1 agent intraperitoneally on days 1, 4, and 9 or (4) untreated control. Tumor volume measurements were taken 3 times per week. The study was terminated on day 12 due to morbidity of control groups.

Assay [3] has as its system V600E+ (BRAF mutated) SM1 tumor. Kind of assay: Syngeneic melanoma V600E+ (BRAF mutated) SM1 tumor model, tumor volume and IHC. In kind it is in vivo, C57BL/6 mice. The procedure:
The syngeneic melanoma model V600E+ (BRAF mutated) SM1 tumor model was used in C57BL/6 mice to assess efficacy of deuterated ETBR antagonists in combination with immunotherapeutics (“B+P”) as compared to a standard treatment, dabrafenib with anti-PD1 (“D+P”). […] In this study 6-8 week old female C57BL/6 mice were inoculated with SM1 tumor fragments (TME* components present). Dosing was initiated when tumors were 150 mm3. The general dosing schemes were as follows: dabrafenib (30 mg/kg daily by oral gavage), immunotherapeutic 10 mg/kg Q4D IP beginning 2 days after dabrafenib), deuterated ETBR antagonist (4 μg administered QOD IV beginning 2 days after dabrafenib). Tumors were measured three times per week, and the study was terminated after 21 days of dosing and IHC analysis of tumors was performed.
TLOs are functionally equivalent to lymph nodes, produce tumor-specific T- and B-cells, and induce long lasting anti-tumor immunity.
FIG. 11 provides table summaries of the results obtained with combination therapies (two- and three-part), TLO formation and efficacy for tumor eradication. The model system tested is as described for FIG. 8. The combinations included dabrafenib+anti-PD1 (“D+P”); dabrafenib+anti-PD1+BQ-788-B (COMPOUND 1) at 0.6 μg (“D+P+B (0.6 μg)”); dabrafenib+anti-PD1+BQ-788-B (COMPOUND 1) at 4.0 μg (“D+P+B (4.0 μg)”); dabrafenib+anti-PD1+BQ-788-B (COMPOUND 1) at 100 μg (“D+P+B (100 μg)”); and anti-PD1+BQ-788-B (COMPOUND 1) at (4.0 μg) (“P+B (4.0 μg)”). […] FIG. 12 presents the efficacy results as a function of tumor volume (mm3).
6 week old female C57BL/6 mice, n=5 per group, were implanted with V600E+ melanoma cancer tumor cells. Once tumors were established, mice were dosed with ETBR antagonists and immune checkpoint inhibitors combination therapy. 21 days post treatment, histological examination was performed, FIG. 20.

In the next assay the target is T2, Recombinant human CXCR4 (Homo sapiens, UniProt P61073).
T2 construct: expressed in transfected cells; host or cells: CHO cells
As to the kind of experiment: CXCR4 (h) cellular antagonist effect, impedance by dielectric spectroscopy. In kind it is cell-based. As to conditions: CHO cells, stimulated with 1 nM SDF-1α, 28° C. The procedure:
FIGS. 4A and 4B illustrates human (“h”) CXCR inhibitory effects for, A) BQ-788 and B) BQ-788-B (Compound 1), a specifically deuterated ETBR antagonist. Cellular agonist effect was calculated as a % of control response to a known reference agonist for CXCR4 (h), and cellular antagonist effect was calculated as a % inhibition of control reference agonist response for CXCR4.
Determination of CXCR4 inhibitory effect. The inhibitory effect on CXCR4 (h) was determined for BQ-788 (FIG. 4A), and BQ-788-B (COMPOUND 1) (FIG. 4B). Cellular agonist effect was calculated as a % of control response to a known reference agonist for CXCR4 (h), and cellular antagonist effect was calculated as a % inhibition of control reference agonist response for CXCR4. Recombinant human CXCR4 was expressed in CHO cells, and stimulated with 1 nM SDF-1α and incubated at 28° C. Dielectric spectroscopy was used to measure impedance of the cells.

Where [4] appears, read: combination with anti-PD1, histology 21 days after treatment.

“Also recorded” adds a separate entry of the source.

T2 sequence (P61073 whole entry): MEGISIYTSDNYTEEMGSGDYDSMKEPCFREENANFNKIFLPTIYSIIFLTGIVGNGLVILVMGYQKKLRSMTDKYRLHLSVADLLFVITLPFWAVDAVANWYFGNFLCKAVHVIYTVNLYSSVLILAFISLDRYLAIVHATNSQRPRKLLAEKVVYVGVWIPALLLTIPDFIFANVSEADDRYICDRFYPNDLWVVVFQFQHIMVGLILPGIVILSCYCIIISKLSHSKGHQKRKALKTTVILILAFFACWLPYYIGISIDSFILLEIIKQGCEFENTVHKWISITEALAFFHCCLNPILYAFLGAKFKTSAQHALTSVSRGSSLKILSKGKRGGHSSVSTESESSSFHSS

On to `CCCC[C@@H](NC(=O)[C@@H](Cc1cn(C(=O)OC)c2ccccc12)NC(=O)[C@H](CC(C)(C)C)NC(=O)N1[C@H](C)CCC[C@@H]1C)C(=O)O` [BQ-788, N-[([2R,6S]-2,6-dimethyl-1-piperidinyl)carbonyl]-4-methyl-L-leucyl-N-[(1R)-1-carboxylatopentyl]-1-[methoxycarbonyl]-D-tryptophanamide, reference compound], for which the “IC50, ETA (h) inhibitory effect” value in assay [1] is recorded as “not calculable”. Further, in the assay with plasma ET-1, the “plasma ET-1 transient peak at” value was “about 30 minutes”.
As to `[2H]CC1CCCC(C[2H])N1C(=O)NC(CC(C)(C)C)C(=O)NC(Cc1cn(C(=O)OC)c2ccccc12)C(=O)NC(CCCC)C(=O)O` (stereo not drawn) [BQ-788-B], the “interaction with anti-PD1” value in assay [2] (Example 3), in assay [2] (Example 5) and in assay [2] (Example 6) was “synergy” each time. Besides, the “anti-bladder cancer treatment efficacy (tumor volume)” value in assay [2] (Example 3: 4 μg IV days 1,3,5,8,10,12,15 + 100 μg anti-PD-1 IP) is “greatest anti-bladder cancer treatment efficacy”; in assay [2] (Example 5: IV days 1,3,5,8 + 100 μg anti-PD-1 IP, tumors about 100 mm^3 at start) it was “greatest anti-bladder cancer treatment efficacy”; in assay [2] (Example 6: 4 μg IV days 1,3,5,8 + 100 μg anti-PD-1 IP days 1,4,9), “greatest anti-bladder cancer treatment efficacy”. The “CD8+ TIL staining distribution” value is “diffuse CD8+ TIL staining” in assay [3] (BQ-788-B 0.6 μg + immune checkpoint inhibitor + dabrafenib, 21 days); “peripheral distribution of TILs” in assay [3] (BQ-788-B 4.0 μg + anti-PD1 + dabrafenib, 21 days); “peripheral distribution of TILs” in assay [3] (BQ-788-B 100 μg + anti-PD1 + dabrafenib, 21 days). Moreover, in assay [3] (combination therapy, tumor volume), the “interaction with anti-PD1 / anti-oncologic agents” value is given as “synergistic results; also recorded: synergistic activity; also recorded: restores sensitivity to the anti-PD1 antibody”. In addition, the “lymphocyte infiltration of tumor (CD8+, CD4+, Treg staining)” value in assay [3] (setting [4]) was “robust infiltration by CD8+ lymphocytes (TILs); also recorded: strong mobilization of lymphocytes to the tumor”. Further, the “tertiary lymphoid organ (TLO) formation” value in assay [3] (setting [4]) is “most frequently associated with intratumoral TLO formation and tumor reduction; also recorded: induced tertiary lymphoid organ (TLO) formation”. Also, in assay [3] (deuterated ETBR antagonist 4 μg QOD IV + anti-PD1 10 mg/kg Q4D IP, 21 days), the “tumor outcome (volume, IHC)” value is on record as “tumor shrinkage below baseline; also recorded: tumors had been eradicated leaving only residual adipose tissue; also recorded: eradicated the tumors”. Further, in assay [1], the “IC50, ETA (h) inhibitory effect” value is “not calculable”. The “plasma ET-1 prolonged peak out to” value in the assay on plasma ET-1 was “about 3 hours”. In addition, the “plasma ET-1 response relative to BQ-788” value in the assay on plasma ET-1 is “enhanced duration and amplitude of response; also recorded: enhanced plasma ET-1 concentration”. The “IC50, CXCR4 (h) inhibitory effect” value on Recombinant human CXCR4 is “not calculable”.
For `CC(C)(C)c1nc(-c2cccc(NS(=O)(=O)c3c(F)cccc3F)c2F)c(-c2ccnc(N)n2)s1` [dabrafenib, reference compound], the “tumor outcome (volume)” value in assay [3] (dabrafenib 30 mg/kg daily oral gavage + anti-PD1 10 mg/kg Q4D IP, 21 days) is “failed to shrink tumors but demonstrated intermediate tumor growth inhibition”. In assay [3] (triple combination, tumor volume), the “effect of adding dabrafenib to anti-PD1/BQ-788-B combination” value is given as “impairs efficacy”.
